This is an account of results in PubChem BioAssay AID1996.

SMILES strings stand for the structures. ≈ marks a conversion by molar mass, not a printed value.

As usually defined, the solubility (kinetic) is solubility judged after dilution from a stock solution rather than from solid.

The conditions of the series: buffer; pH 7.4; 200.0 µM.
Compound `COc1cc(CN2CCCN(C)CC2)cc([N+](=O)[O-])c1O` showed a kinetic solubility of 33.9 µg/mL (≈ 115 µM). Next, `C=CCOc1cccc(CNc2cccc(C(=O)O)c2)c1`: greater than 42.5 µg/mL; `CC(OC(=O)c1cccc(Cl)c1)C(=O)NC1CCCCC1C` (configuration not stated): 8.7 µg/mL (≈ 26.9 µM); `Cc1cccc(CN2CCN(C(=S)Nc3ccccc3)CC2)c1`: greater than 48.8 µg/mL. As for `COC(=O)c1sccc1NC(=O)CSCCc1ccncc1`, the figure is 49.6 µg/mL (≈ 147 µM). Consider `N#Cc1cccc(NC(=O)CN2CCN(Cc3ccccc3)CC2)c1`, for which the solubility (kinetic) came out at 49.8 µg/mL (≈ 149 µM). As for `Cc1cccc(NC(=O)N2C3CCCC2CC(NC(=O)C2CC2)C3)c1` (configuration not stated), the figure is 22.7 µg/mL (≈ 66.5 µM); as for `O=C(NC1CC1)C1CCN(c2ncccn2)CC1`, greater than 36.9 µg/mL; as for `Cc1ccnc(Cc2ccccc2)n1`, 18.5 µg/mL (≈ 100 µM). Next, `CCC1C(=O)NCCN1Cc1nc(-c2ccc(C)s2)oc1C` (configuration not stated): 39.3 µg/mL (≈ 123 µM); `NC(=O)CSc1nc2ccccc2c(=O)n1-c1ccccc1`: greater than 46.7 µg/mL. Next, `Cc1ccc(C(=O)NCC(=O)N2CCN(c3ccccc3)CC2)cc1`: 4.4 µg/mL (≈ 13 µM); `CC1CC(C)CN(CC(O)COC2CC(C)CC(C)(C)C2)C1.Cl` (configuration not stated): 47.9 µg/mL. As for `O=C(COC(=O)/C=C/c1ccc(C(F)(F)F)cc1)NCc1ccco1`, the kinetic solubility came to 35.7 µg/mL (≈ 101 µM). As for `Cc1cccc(NC(=O)CN(C)C(=O)c2ccc(N3CCCCCC3)c([N+](=O)[O-])c2)c1C`, the figure is 11.4 µg/mL (≈ 26 µM). Next, `CN1C(=O)CSC1=Nc1cccc(C(=O)O)c1`: greater than 37.5 µg/mL; `Cc1cccc(NC(=O)NC2CCCCCCC2)c1C`: 0.6 µg/mL (≈ 2.19 µM); `CCC(=O)Nc1cccc(-c2nc3ccc(C)cc3o2)c1`: 1.6 µg/mL (≈ 5.71 µM).

In the case of `O=C(NC(=S)NC1CCCCC1)c1ccc(F)cc1`, the kinetic solubility stood at 2.1 µg/mL (≈ 7.49 µM). On to `Cc1nc(N)c(Cc2ccccc2F)c(N)n1`, for which the kinetic solubility was greater than 34.8 µg/mL. As to `C[Se]C[C@@H](N)C(=O)O.Cl`, the solubility (kinetic) is greater than 32.8 µg/mL. On to `COc1ccccc1C(=O)NCCOc1ccc(C)c(C)c1`, for which the kinetic solubility is 43 µg/mL (≈ 144 µM). Next, `Cc1cc(C)cc(C(=O)OCC(=O)NCc2ccco2)c1`: greater than 43.1 µg/mL. On to `CCCCC(=O)OCC(=O)c1[nH]c(C)c(C(C)=O)c1C`, for which the kinetic solubility came to 36.9 µg/mL (≈ 132 µM). The compound `Cl.OCCNc1nc(N2CCCCC2)nc2ccccc12` came in with a kinetic solubility greater than 46.3 µg/mL. As for `CCN(CC)CCCN=Cc1c(O)n(-c2cccc(C)c2)c(=O)c2ccccc12`, the figure is greater than 58.7 µg/mL; as for `Cc1cnc(NC(=O)CC2OC(=O)c3ccccc32)s1` (configuration not stated), 6.5 µg/mL (≈ 22.5 µM). As for `CCOc1ccc(C(=O)O/N=C(\N)c2ccccn2)cc1OCC`, the figure is 21.4 µg/mL (≈ 65 µM); as for `COc1ccccc1CCNS(=O)(=O)c1ccc(C(=O)O)n1C`, greater than 50.8 µg/mL. Next, `CCc1cc(=O)[nH]c(SCC(=O)Nc2cc(C)on2)n1`: greater than 44.1 µg/mL. For the compound `Cc1cnc(C(=O)OCc2c(C)cc(C(C)(C)C)cc2C)cn1`, the kinetic solubility was 9 µg/mL (≈ 28.8 µM). As for `Cc1cc(NC(=O)CN2C(=O)c3ccccc3S2(=O)=O)no1`, the figure is 32.7 µg/mL (≈ 102 µM); as for `CC(C(=O)Nc1ccccc1)N1CCN(C(=O)c2ccco2)CC1` (configuration not stated), greater than 49.1 µg/mL; as for `Cc1ncc(CN2CCN(C3CCCC3)C(CCO)C2)s1` (configuration not stated), 36 µg/mL (≈ 116 µM). As for `S=C(NCc1ccccc1)N1CCN(C2CCCCC2)CC1`, the figure is greater than 47.6 µg/mL. Compound `COc1cc(NC(=O)Nc2cccc3cccnc23)cc(OC)c1OC` gave a kinetic solubility of 0.4 µg/mL (≈ 1.13 µM). Next, `COC(=O)CSc1[nH]c2cc(C)ccc2c1[N+](=O)[O-]`: greater than 42 µg/mL; `CCN(CC(=O)Nc1cc(Cl)cc(Cl)c1)CC(=O)NC1CCS(=O)(=O)C1` (configuration not stated): 52.3 µg/mL (≈ 124 µM); `CC(C)NC(=O)CSc1ncccc1-c1nc2ccccc2[nH]1`: 46.9 µg/mL (≈ 144 µM). As for `Cc1cc(C(=O)NC2CCCC2)c2ccccc2n1`, the figure is greater than 38.1 µg/mL; as for `O=C(CNC(=O)c1ccccc1F)Nc1ccc2c(c1)OCO2`, 23.2 µg/mL (≈ 73.4 µM); as for `CCOCCn1c(CC)nc2ccccc21`, greater than 32.7 µg/mL.

Turning to `CC(C#N)OC(=O)c1cccnc1SCC(=O)Nc1ccc2c(c1)OCO2` (configuration not stated), the kinetic solubility worked out at 20.8 µg/mL (≈ 54 µM). In turn, `O=C(Nc1ccncc1)c1ccc(N2CCCC2=O)cc1` had a kinetic solubility greater than 42.2 µg/mL. As for `Cc1cc(SCC(=O)Nc2cccnc2Cl)nc2ccccc12`, the figure is less than 0.2 µg/mL; as for `O=C(COc1ccccc1Br)NC1CC1`, greater than 40.5 µg/mL; as for `c1ccc(CN2CCC(Nc3ncnc4sccc34)CC2)cc1`, 46.2 µg/mL (≈ 142 µM). As for `O=C(CNC(=O)c1ccccc1Cl)c1ccccc1`, the figure is 37.6 µg/mL (≈ 137 µM); as for `NC(=O)C1CCN(C(=O)c2cc(Cl)c3c(c2)OCCO3)CC1`, greater than 48.7 µg/mL; as for `CC(=O)c1ccc(N2C(=O)CC(N3CCN(S(=O)(=O)c4cc(C)ccc4C)CC3)C2=O)cc1` (configuration not stated), 56.9 µg/mL (≈ 121 µM). Next, `O=C(c1ccc([N+](=O)[O-])cc1)N1CCN=C1SCc1ccccc1`: 17.4 µg/mL (≈ 51 µM); `O=C(O)c1ccccc1C(=O)Nc1nc(-c2ccccc2)cs1`: 43.2 µg/mL (≈ 133 µM).
